These results are taken from patent publication US6680323B2, “Dihydropyrimidines and uses thereof” (Synaptic Pharmaceutical Corporation, priority 1998, dated 2004).

pKi: −log10 of the molar value. Structures can show the parent of a compound that is named as a salt.

For test [1], the target named is T1, human α2c receptor (Homo sapiens, UniProt P18825).
T1 construct: expressed in transfected cells
T1 sequence (P18825 1-462): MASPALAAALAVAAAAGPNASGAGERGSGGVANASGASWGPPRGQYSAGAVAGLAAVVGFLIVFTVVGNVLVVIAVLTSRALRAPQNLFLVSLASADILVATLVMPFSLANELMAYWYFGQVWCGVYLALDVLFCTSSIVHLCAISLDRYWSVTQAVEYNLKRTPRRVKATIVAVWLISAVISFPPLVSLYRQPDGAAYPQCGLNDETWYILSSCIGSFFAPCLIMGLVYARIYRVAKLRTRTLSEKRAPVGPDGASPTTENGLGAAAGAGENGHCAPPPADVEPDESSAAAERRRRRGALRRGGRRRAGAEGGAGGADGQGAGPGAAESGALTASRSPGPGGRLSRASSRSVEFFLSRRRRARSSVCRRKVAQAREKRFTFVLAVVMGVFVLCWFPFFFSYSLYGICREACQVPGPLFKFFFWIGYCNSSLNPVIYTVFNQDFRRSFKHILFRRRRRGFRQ
Nature of the test: Competition binding ([3H]rauwolscine) at cloned human α2c receptor. As to conditions: transfected LM(tk−) cells, [3H]rauwolscine 0.5 nM; read-out: Binding affinity hα2c. From the text:
(§1) α2 Human Adrenergic Receptors
(§2) To determine the potency of α1 antagonists at the α2 receptors, LM(tk−) cell lines stably transfected with the genes encoding the α2a, α2b, and α2c receptors were used. The cell line expressing the α2a receptor is designated L-α2A, and was deposited on Nov. 6, 1992 under ATCC Accession No. CRL 11180. The cell line expressing the α2b receptor is designated L-NGC-α2B, and was deposited on Oct. 25, 1989 under ATCC Accession No. CRL10275. The cell line expressing the α2c receptor is designated L-α2C, and was deposited on Nov. 6, 1992 under ATCC Accession No. CRL-11181. All the cell lines were deposited with the American Type Culture Collection, 12301 Parklawn Drive, Rockville, Md. 20852, U.S.A. under the provisions of the Budapest Treaty for the International Recognition of the Deposit of Microorganisms for the Purposes of Patent Procedure. Cell lysates were prepared as described above (see Radioligand Binding Assays), and suspended in 25 mM glycylglycine buffer (pH 7.6 at room temperature). Equilibrium competition binding assay were performed using [3H]rauwolscine (0.5 nM), and nonspecific binding was determined by incubation with 10 μM phentolamine. The bound radioligand was separated by filtration through GF/B filters using a cell harvester.

Test [2] concerns the target T2, human α2a receptor (Homo sapiens, UniProt P08913).
T2 construct: expressed in transfected cells
T2 sequence (P08913 1-465): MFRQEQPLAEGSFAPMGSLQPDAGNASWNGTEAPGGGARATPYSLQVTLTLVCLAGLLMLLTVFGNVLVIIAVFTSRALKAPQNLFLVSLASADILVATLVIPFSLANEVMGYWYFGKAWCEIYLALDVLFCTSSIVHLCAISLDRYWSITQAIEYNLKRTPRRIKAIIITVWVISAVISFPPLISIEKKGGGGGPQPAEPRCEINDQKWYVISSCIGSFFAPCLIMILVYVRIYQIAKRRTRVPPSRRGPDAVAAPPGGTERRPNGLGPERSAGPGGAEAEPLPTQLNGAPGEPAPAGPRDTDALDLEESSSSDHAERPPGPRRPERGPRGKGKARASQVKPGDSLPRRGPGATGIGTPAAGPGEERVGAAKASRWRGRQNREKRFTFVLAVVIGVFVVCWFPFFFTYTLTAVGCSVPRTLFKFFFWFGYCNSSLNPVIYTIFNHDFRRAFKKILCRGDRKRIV
Nature of the test: Competition binding ([3H]rauwolscine) at cloned human α2a receptor. As to conditions: transfected LM(tk−) cells, [3H]rauwolscine 0.5 nM; read-out: Binding affinity hα2a.
Description: as §1, §2

On to `COCC1=C(C(=O)OC)[C@H](c2ccc(F)c(F)c2)N(C(=O)NCCCO)C(=O)N1` [Compound 1, (+)-1,2,3,6-Tetrahydro-1-(3-hydroxypropyl)carboxamido-5-methoxycarbonyl-4-methoxymethyl-6-(3,4-difluorophenyl)-2-oxo-pyrimidine], for which the figures for the pKi in test [1] and in test [2] were less than 4.30 and 4.40, respectively.

For the molecule `COCC1=C(C(=O)OC)[C@H](c2ccc(F)c(F)c2)N(C(=O)NCCC[n+]2ccc(-c3ccccn3)cc2)C(=O)N1` [Compound 3, 4-(2-Pyridyl)-1-{3-[5-carboxymethyl-4-methoxymethyl-2-oxo-6(S)-(3,4-difluorphenyl)-1,2,3,6-tetrahydropyrimidin-1-yl]carboxyaminopropyl}pyridinium chloride], the pKi in test [1] was 5.47; in test [2], 5.25.

Regarding `O=C(O)CCNC(=O)N1C(=O)NC2=C(C(=O)OC2)[C@@H]1c1ccc(F)c(F)c1` [Compound 9], the pKi in test [1] and in test [2] was less than 4.30 throughout.

Consider `COC(=O)C1=C(CO)NC(=O)N(C(=O)NCCCN2CCC(c3ccccn3)CC2)[C@H]1c1ccc(F)c(F)c1` [Compound 7, (+)-1,2,3,6-Tetrahydro-1-{N-[4-(2-pyridyl)piperidin-1-yl]propyl}carboxamido-5-methoxycarbonyl-4-hydroxymethyl-6-(3,4-difluorophenyl)-2-oxopyrimidine], for which the pKi in test [1] was 6.59; in test [2], 6.42.

As to `COCC1=C(C(=O)OC)[C@H](c2ccc(F)c(F)c2)N(C(=O)NCCCN2CCC(c3cccc[n+]3[O-])CC2)C(=O)N1` [Compound 2, (+)-1,2,3,6-Tetrahydro-1-{N-[4-(2-pyridyl)piperidin-1-yl]propyl}carboxamido-5-methoxycarbonyl-4-methoxymethyl-6-(3,4-difluorophenyl)-2-oxopyrimidine-pyridine-N-oxide hydrochloride], the results for the pKi in test [1] and in test [2] were 5.82 and 5.38, respectively.

Take `O=C1OCC2=C1C(c1ccc(F)c(F)c1)N(C(=O)NCCCN1CCC(c3ccccn3)CC1)C(=O)N2` (single isomer, unassigned; (+)) [Compound 8, (+)-1-3-{[4-(3,4-Difluorophenyl)-2,5-dioxo-1,2,5,7-tetrahydro-4H-furo[3,4-d]-pyrimidine-3-carbonyl]amino}-propyl-4-(2-pyridyl)-piperidine]: the pKi in test [1] and in test [2] was 5.82 each time.
